Results on 32 compounds are retold here after patent US9242996B2 (Novartis AG, priority 2013, dated 2016).

What is called IC50 is the point on the concentration scale where inhibition reaches its midpoint.

Sequence of activated ERK2 (P28482 whole entry): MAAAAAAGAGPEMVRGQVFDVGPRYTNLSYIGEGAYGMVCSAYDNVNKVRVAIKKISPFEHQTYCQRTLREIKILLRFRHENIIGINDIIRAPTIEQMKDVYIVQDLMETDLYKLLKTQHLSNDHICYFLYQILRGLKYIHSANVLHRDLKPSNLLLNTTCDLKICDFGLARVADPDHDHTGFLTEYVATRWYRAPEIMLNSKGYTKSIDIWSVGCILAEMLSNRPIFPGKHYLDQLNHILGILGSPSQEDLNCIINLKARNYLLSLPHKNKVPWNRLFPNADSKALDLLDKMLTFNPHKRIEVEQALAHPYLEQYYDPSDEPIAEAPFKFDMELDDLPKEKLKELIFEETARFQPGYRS

This assay concerns the target activated ERK2 (Homo sapiens (Human), UniProt P28482). Kind of assay: Activated ERK2 kinase assay, ERK2 New conditions (AlphaScreen, ERKtide phosphorylation). It counts as biochemical. The conditions noted are these: 0.25 nM ERK2, 200 nM ERKtide peptide, 35 μM ATP, 30 min preincubation. In outline:
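Read-out is AlphaScreen with anti-phospho-EGFR (Thr669) antibody after EDTA quench and overnight dark incubation. Reaction: 0.25 nM ERK2, 30 min compound preincubation, then 200 nM ERKtide plus 35 µM ATP for 2–3 h at ambient temperature, pH 7.5. IC50 by four-parameter fit.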
Regarding `Nc1ncc(-c2ccc(=O)[nH]c2)nc1-c1ccc(C(=O)N[C@H](CO)c2ccccc2)cc1` [Example 129, (S)-4-(3-amino-6-(6-oxo-1,6-dihydropyridin-3-yl)pyrazin-2-yl)-N-(2-hydroxy-1-phenylethyl)benzamide], 2.02 nM corresponded to half-maximal inhibition (IC50).

Turning to `N#CCc1cnc(N)c(-c2ccc(C(=O)N[C@H](CO)c3ccccc3)c(F)c2)c1` [Example 134, (S)-4-(2-amino-5-(cyanomethyl)pyridin-3-yl)-2-fluoro-N-(2-hydroxy-1-phenylethyl)benzamide], the half-inhibitory concentration (IC50) amounted to 202 nM.

In turn, `Nc1ncc([C@@H]2CCOC2)nc1-c1ccc(C(=O)N[C@H](CO)c2ccccc2)cc1` [Example 136, 4-(3-amino-6-((S)-tetrahydrofuran-3-yl)pyrazin-2-yl)-N—((S)-2-hydroxy-1-phenylethyl)benzamide] gave an IC50 of 4.51 nM.

Regarding `Nc1ncc([C@H]2CCOC2)nc1-c1ccc(C(=O)N[C@H](CO)c2ccccc2)cc1` [Example 137, 4-(3-amino-6-((R)-tetrahydrofuran-3-yl)pyrazin-2-yl)-N—((S)-2-hydroxy-1-phenylethyl)benzamide], the IC50 is 31 nM.

`Nc1ncc(-c2ccoc2)nc1-c1ccc(C(=O)N[C@H](CO)c2ccccc2)cc1` [Example 138] registered an IC50 of 13.3 nM.

`Cc1cnccc1-c1cnc(N)c(-c2ccc(C(=O)NCc3cccc(S(C)(=O)=O)c3)cc2)n1` [Example 139, 4-(3-amino-6-(3-methylpyridin-4-yl)pyrazin-2-yl)-N-(3-(methylsulfonyl)benzyl)benzamide] showed a half-inhibitory concentration (IC50) of 7.95 nM.

In turn, `Cn1cncc1-c1cnc(N)c(-c2ccc(C(=O)N[C@H](CO)c3ccccc3)c(F)c2)c1` [Example 140, (S)-4-(2-amino 5-(1-methyl-1H-imidazol-5-yl)pyridin-3-yl)-2-fluoro-N-(2-hydroxy-1-phenylethyl)benzamide] showed an IC50 of 1.41 nM.

For the compound `Cn1nncc1-c1cnc(N)c(-c2cc(F)c(C(=O)N[C@H](CO)c3cccc(Cl)c3)c(F)c2)c1` [Example 141, (S)-4-(2-amino-5-(1-methyl-1H-1,2,3-triazol-5-yl)pyridin-3-yl)-N-(1-(3-chlorophenyl)-2-hydroxyethyl)-2,6-difluorobenzamide], the half-maximal inhibitory concentration (IC50) is 0.183 nM.

Compound `Nc1ncc(-c2ccnnc2)nc1-c1ccc(C(=O)N[C@H](CO)c2ccccc2)c(F)c1` [Example 144, (S)-4-(3-amino-6-(pyridazin-4-yl)pyrazin-2-yl)-2-fluoro-N-(2-hydroxy-1-phenylethyl)benzamide] came in with an IC50 of 1.18 nM.

`Cn1cc(-c2cnc(N)c(-c3ccc(C(=O)N[C@H](CO)c4ccccc4)cc3)n2)cn1` [Example 146, (S)-4-(3-amino-6-(1-methyl-1H-pyrazol-4-yl)pyrazin-2-yl)-N-(2-hydroxy-1-phenylethyl)benzamide]: half-maximal inhibition (IC50) required 3.39 nM.

For `Cn1cc(-c2cnc(N)c(-c3ccc(C(=O)NCc4cccc(S(C)(=O)=O)c4)c(F)c3)n2)cn1` [Example 147, 4-(3-amino-6-(1-methyl-1H-pyrazol-4-yl)pyrazin-2-yl)-2-fluoro-N-(3-(methylsulfonyl)benzyl)benzamide], the IC50 was 45.4 nM.

In the case of `Cn1cc(-c2cnc(N)c(-c3ccc(C(=O)N[C@H](CO)c4ccccc4)c(F)c3)n2)cn1` [Example 148, (S)-4-(3-amino-6-(1-methyl-1H-pyrazol-4-yl)pyrazin-2-yl)-2-fluoro-N-(2-hydroxy-1-phenylethyl)benzamide], the IC50 was 1.9 nM.

In turn, `Cc1cc(-c2cc(-c3cnnn3C)cnc2N)ccc1C(=O)N[C@H](CO)c1cccc(Cl)c1` [Example 149, (S)-4-(2-amino-5-(1-methyl-1H-1,2,3-triazol-5-yl)pyridin-3-yl)-N-(1-(3-chlorophenyl)-2-hydroxyethyl)-2-methylbenzamide] gave an IC50 of 0.149 nM.

Compound `Cc1nn(C)cc1-c1cnc(N)c(-c2ccc(C(=O)N[C@H](CN)c3ccccc3)c(F)c2)c1` [Example 153, (S)-N-(2-amino-1-phenylethyl)-4-(2-amino-5-(1,3-dimethyl-1H-pyrazol-4-yl)pyridin-3-yl)-2-fluorobenzamide] displayed an IC50 of 0.38 nM.

`Cc1nn(C)c(C)c1-c1cnc(N)c(-c2ccc(C(=O)N[C@H](CO)c3cccc(Cl)c3)c(F)c2)c1` [Example 154, (S)-4-(2-amino 5-(1,3,5-trimethyl-1H-pyrazol-4-yl)pyridin-3-yl)-N-(1-(3-chlorophenyl)-2-hydroxyethyl)-2-fluorobenzamide]: half-maximal inhibition (IC50) required 0.288 nM.

On to `Cn1cc(-c2cnc(N)c(-c3ccc(C(=O)NC4CC4c4ccccc4)c(F)c3)n2)cn1` (centres unmarked) [Example 155, 4-(3-amino-6-(1-methyl-1H-pyrazol-4-yl)pyrazin-2-yl)-2-fluoro-N-(2-phenylcyclopropyl)benzamide], for which the IC50 was determined as 1.89 nM.

On to `Cc1noc(C)c1-c1cnc(N)c(-c2ccc(C(=O)N[C@H](CO)c3ccccc3)c(F)c2)n1` [Example 156, (S)-4-(3-amino-6-(3,5-dimethylisoxazol-4-yl)pyrazin-2-yl)-2-fluoro-N-(2-hydroxy-1-phenylethyl)benzamide], for which half-maximal inhibition (IC50) was put at 3.32 nM.

In turn, `Cc1oncc1-c1cnc(N)c(-c2ccc(C(=O)N[C@H](CO)c3ccccc3)c(F)c2)n1` [Example 157, (S)-4-(3-amino-6-(5-methylisoxazol-4-yl)pyrazin-2-yl)-2-fluoro-N-(2-hydroxy-1-phenylethyl)benzamide] came in with an IC50 of 0.416 nM.

In the case of `Cc1oncc1-c1cnc(N)c(-c2ccc(C(=O)N[C@H](CO)c3ccccc3)c(F)c2)c1` [Example 158, (S)-4-(2-amino-5-(5-methylisoxazol-4-yl)pyridin-3-yl)-2-fluoro-N-(2-hydroxy-1-phenylethyl)benzamide], half-maximal inhibition (IC50) was put at 0.634 nM.

As to `Cn1cc(-c2cnc(N)c(-c3ccc(C(=O)N[C@H](CO)c4cccc(F)c4)c(F)c3)c2)c(C#N)n1` [Example 159, (S)-4-(2-amino-5-(3-cyano-1-methyl-1H-pyrazol-4-yl)pyridin-3-yl)-2-fluoro-N-(1-(3-fluorophenyl)-2-hydroxyethyl)benzamide], the IC50 is 3.14 nM.

In turn, `Cn1cc(-c2cnc(N)c(-c3ccc(C(=O)N[C@H](CO)c4cccc(Cl)c4)c(F)c3)c2)c(C#N)n1` [Example 160, (S)-4-(2-amino 5-(3-cyano-1-methyl-1H-pyrazol-4-yl)pyridin-3-yl)-N-(1-(3-chlorophenyl)-2-hydroxyethyl)-2-fluorobenzamide] yielded an IC50 of 0.653 nM.

`Cc1ncc(-c2cnc(N)c(-c3ccc(C(=O)N[C@H](CO)c4ccccc4)c(F)c3)c2)n1C` [Example 161, (S)-4-(2-amino-5-(1,2-dimethyl-1H-imidazol-5-yl)pyridin-3-yl)-2-fluoro-N-(2-hydroxy-1-phenylethyl)benzamide] yielded an IC50 of 5.78 nM.

Turning to `Cc1ncc(-c2cnc(N)c(-c3ccc(C(=O)N[C@H](CO)c4cccc(F)c4)c(F)c3)c2)n1C` [Example 163, (S)-4-(2-amino-5-(1,2-dimethyl-1H-imidazol-5-yl)pyridin-3-yl)-2-fluoro-N-(1-(3-fluorophenyl)-2-hydroxyethyl)benzamide], the IC50 was 5.14 nM.

`Nc1ncc(-c2cnoc2)cc1-c1ccc(C(=O)N[C@H](CO)c2ccccc2)c(F)c1` [Example 164, (S)-4-(2-amino-5-(isoxazol-4-yl)pyridin-3-yl)-2-fluoro-N-(2-hydroxy-1-phenylethyl)benzamide] showed an IC50 of 1.4 nM.

Compound `Cc1oncc1-c1cnc(N)c(-c2ccc(C(=O)N[C@H](CO)c3cccc(F)c3)c(F)c2)c1` [Example 165, (S)-4-(2-amino-5-(5-methylisoxazol-4-yl)pyridin-3-yl)-2-fluoro-N-(1-(3-fluorophenyl)-2-hydroxyethyl)benzamide] yielded an IC50 of 390 nM.

The compound `Cn1cnnc1-c1cnc(N)c(-c2ccc(C(=O)N[C@H](CO)c3cccc(Cl)c3)c(F)c2)c1` [Example 167, (S)-4-(2-amino-5-(4-methyl-4H-1,2,4-triazol-3-yl)pyridin-3-yl)-N-(1-(3-chlorophenyl)-2-hydroxyethyl)-2-fluorobenzamide] displayed an IC50 of 0.998 nM.

Compound `Cn1cc(-c2cnc(N)c(-c3ccc(C(=O)N[C@H](CO)c4ccccc4)c(F)c3)c2)c(C(F)(F)F)n1` [Example 168, (S)-4-(2-amino-5-(1-methyl-3-(trifluoromethyl)-1H-pyrazol-4-yl)pyridin-3-yl)-2-fluoro-N-(2-hydroxy-1-phenylethyl)benzamide] yielded an IC50 of 5.13 nM.

`Cc1c(-c2cnc(N)c(-c3ccc(C(=O)N[C@H](CO)c4ccccc4)c(F)c3)c2)cnn1C` [Example 170, (S)-4-(2-amino-5-(1,5-dimethyl-1H-pyrazol-4-yl)pyridin-3-yl)-2-fluoro-N-(2-hydroxy-1-phenylethyl)benzamide] showed an IC50 of 1.58 nM.

Regarding `COCCn1cc(-c2cnc(N)c(-c3ccc(C(=O)N[C@H](CO)c4ccccc4)c(F)c3)c2)cn1` [Example 171, (S)-4-(2-amino-5-(1-(2-methoxyethyl)-1H-pyrazol-4-yl)pyridin-3-yl)-2-fluoro-N-(2-hydroxy-1-phenylethyl)benzamide], the IC50 worked out at 1.09 nM.

`NC[C@@H](NC(=O)c1ccc(-c2nc(C3CCC(F)(F)CC3)cnc2N)cc1F)c1cccc(Cl)c1` [Example 197, (S)—N-(2-amino-1-(3-chlorophenyl)ethyl)-4-(3-amino-6-(4,4-difluorocyclohexyl)pyrazin-2-yl)-2-fluorobenzamide]: the IC50 was 2.1 nM.

`Nc1ncc([C@H]2CC[S@+]([O-])CC2)cc1-c1ccc(C(=O)N[C@H](CO)c2cccc(Cl)c2)c(F)c1` [Example 211, 4-(2-amino-5-((1S,4r)-1-oxidotetrahydro-2H-thiopyran-4-yl)pyridin-3-yl)-N—((S)-1-(3-chlorophenyl)-2-hydroxyethyl)-2-fluorobenzamide]: the IC50 was found to be 5.44 nM.

`Nc1ncc(C2CCSCC2)cc1-c1ccc(C(=O)N[C@H](CO)c2cccc(Cl)c2)c(F)c1` [Example 212, (S)-4-(2-amino-5-(tetrahydro-2H-thiopyran-4-yl)pyridin-3-yl)-N-(1-(3-chlorophenyl)-2-hydroxyethyl)-2-fluorobenzamide]: inhibition was half-maximal at 0.397 nM (IC50).
